Measured values from PMC7728077, “Double-Headed Cationic Lipopeptides: An Emerging Class of Antimicrobials” (International Journal of Molecular Sciences, 2020).
Converted amounts (≈) assume the structure as drawn. Square brackets hold non-standard residues; d marks the D form. Peptide text beside a SMILES is read from it. * marks the point of attachment. Palmitoyl = CCCCCCCCCCCCCCCC(=O)*; Orn = NCCC[C@H](N)C(=O)O; Dab = NCC[C@H](N)C(=O)O; Dap = NC[C@H](N)C(=O)O

What was measured:
[1] = tested on: Candida albicans ATCC 10231; type: cell-based; settings: ATCC 10231, 18 h
Source text: (§1) Fmoc-Lys(Boc)-OH and the coupling reagents were purchased from GL Biochem (Shanghai, China). Palmitoyl Fmoc-amino acids: Fmoc-Lys(C16)-OH, Fmoc-Orn(C16)-OH, Fmoc-Dab(C16)-OH, and Fmoc-Dap(C16)-OH were acquired from Iris Biotech GmbH (Marktredwitz, Germany). The resin and solvents were purchases from Rapp Polymere (Tübingen, Germany), Merck (Darmstadt, Germany), and Avantor Performance Materials (Gliwice, Poland), respectively. The phospholipids, 1,2-dipalmitoyl-sn-glycero-3-phosphocholine (DPPC), 1,2-dipalmitoyl-sn-glycero-3-[phospho-rac-(1-glycerol)] (DPPG), 1-palmitoyl-2-oleoyl-glycero-3-phosphocholine (POPC) and 1-palmitoyl-2-oleoyl-sn-glycero-3-[phospho-rac-(1-glycerol)] (POPG), were purchased from Avanti Polar Lipids (Alabaster, AL, USA). LPS E. coli 055:B5 and phosphate buffered saline (PBS) were from Sigma-Aldrich (Steinheim, Germany). The Mueller Hinton broth was bought from BIOCORP (Warsaw, Poland) and the RPMI-1640 medium from Sigma-Aldrich (Steinheim, Germany). LIVE/DEAD™ BacLight™ Bacterial Viability Kit was obtained from Thermo Fisher Scientific (Waltham, MA, USA). Bacterial strains (Escherichia coli ATCC 25922, Pseudomonas aeruginosa ATCC 9027, Staphylococcus aureus ATCC 25923, Staphylococcus epidermidis ATCC 1922) and the fungal strain (Candida albicans ATCC 10231) were obtained from the Polish Collection of Microorganisms, Polish Academy of Science, Institute of Immunology and Experimental Therapy, Wroclaw, Poland.
(§2) Antimicrobial activity of the lipopeptides was determined according to the broth microdilution guidelines recommended by the Clinical and Laboratory Standards Institute (CLSI). Minimum inhibitory concentrations (MICs) were assumed as the lowest concentration of the peptide solution, at which the visible growth of microorganisms was inhibited. MIC values of lipopeptides against bacteria were evaluated in the Mueller–Hinton broth and against fungus in the RPMI-1640 medium. Initial inoculums of bacteria and fungus (with concentrations of 5 × 10^5 CFU/mL and 2 × 10^3 CFU/mL, respectively) were exposed to increasing concentrations of lipopeptides solutions over the range of 1–512 µg/mL. […] The 96-well plates filled with appropriate inoculums and the tested compounds were incubated for 18 h at 37 °C. Presented values are the mean of the results obtained in three independent experiments.

[2] = tested on: Escherichia coli ATCC 25922; type: cell-based; settings: ATCC 25922, 18 h
Source text: as §1, §2

[3] = tested on: Pseudomonas aeruginosa ATCC 9027; type: cell-based; settings: ATCC 9027, 18 h
Source text: as §1, §2

[4] = tested on: Staphylococcus aureus ATCC 25923; type: cell-based; settings: ATCC 25923, 18 h
Source text: as §1, §2

[5] = tested on: Staphylococcus epidermidis ATCC 1922; type: cell-based; settings: ATCC 1922, 18 h
Source text: as §1, §2

[6] = tested on: 46BR.1N human skin fibroblasts cell line; type: cell-based
Protocol: (§3) Cytotoxicity was determined towards immortalized human HaCaT keratinocytes (DKFZ, Heidelberg, Germany), transformed human fibroblast cell line 46BR.1N (ECACC), as well as the human melanoma (A375), human lung cancer (A549), human colon cancer (HCT-116), human colon adenocarcinoma (HT-29), and human prostate cancer (LNCaP) cell lines. Keratinocytes and fibroblast cell lines were maintained in a humidified atmosphere with 5% CO2 at 37 °C in a Dulbecco’s modified Eagle’s medium (DMEM) (Sigma-Aldrich, Steinheim, Germany), which contained 4500 mg/L of glucose, 584 mg/L of L-glutamine, sodium pyruvate, and sodium bicarbonate. Additionally, the medium was supplemented with 10% of fetal bovine serum (FBS) (Sigma-Aldrich, Steinheim, Germany), 100 U/mL of penicillin, and 100 µg/mL of streptomycin (Sigma-Aldrich, Steinheim, Germany). The cells were grown in culture dishes (BD, Franklin Lakes, NJ, USA) and the medium was changed every 2 days. Afterwards, the fibroblasts and keratinocytes were harvested using a standard trypsin-EDTA solution, centrifuged, suspended in a medium supplemented with 10% FBS and seeded at a density of 5500–6000 cells per well into 96-well plates. After 24 h, the medium was exchanged with a serum- and antibiotic-free DMEM. The next day, serially diluted solutions of the lipopeptides prepared in a fresh FBS- and antibiotic-free medium were added to the wells. The potential cytotoxic effect of the compounds was analyzed over the concentration range of 1–25 µg/mL. After addition of the lipopeptides, cells were incubated for the next 24 h. At the end of the experiment, the cells were treated with 20 µL of MTT (5 mg/mL in PBS). After 3 h at 37 °C under 5% CO2, the medium was discarded and replaced by 6 mM HCl in isopropanol. As soon as the purple crystals of formazan were completely solubilized, absorbance was read at 570 nm with a plate reader. The optical density of the wells without the tested compounds were regarded as the positive control. The MTT assay was performed in triplicate for each cell line.
(§4) Determination of the half-maximum inhibitory concentrations (IC50) was done using GraphPad Prism 5 software (San Diego, CA, USA) based on the dose-response curves. The logarithm of the different concentrations of compounds was plotted against the percentage of inhibition in cell viability as compared with control probes, treated as 100%.

[7] = tested on: HaCaT human keratinocyte cell line; type: cell-based
Protocol: as §3, §4

[8] = tested on: A375 human malignant melanoma cell line; type: cell-based
Protocol: (§5) In the case of evaluation of cytotoxicity towards different types of the cancer cell lines (A375, A549, HCT-116, HT-29, and LNCaP, respective cells were seeded in 96-well plates (4500 cell/well) in the RPMI-1640 medium supplemented with 5% FBS without antibiotics and incubated for 24 h before stimulation with the lipopeptides. The next day, the cells were exposed to the effect of the serially diluted compounds added at concentrations ranging from 1 to 25 µg/mL for a period of 48 h. After the treatment, cells viability was evaluated by means of MTT assays, according to standard protocol, as just described. The experiment was repeated three times for each cell line.
as §4

[9] = tested on: A549 human epithelial lung carcinoma; type: cell-based
Protocol: as §5, §4

[10] = tested on: HCT-116 human colorectal carcinoma; type: cell-based
Protocol: as §5, §4

[11] = tested on: HT-29 human colorectal adenocarcinoma; type: cell-based
Protocol: as §5, §4

[12] = tested on: LNCaP human prostate carcinoma; type: cell-based
Protocol: as §5, §4

[13] = tested on: MCF-7 breast cancer cell line; type: cell-based, human
[14] = Analytical RP-HPLC retention time as measure of hydrophobicity; type: physicochemical; settings: Jupiter 4 µ Proteo 90 Å 250 x 4.60 mm, linear gradient 15-90% B in A in 30 min, 1 ml/min, A 0.1% aqueous TFA, B 80% acetonitrile in water with 0.1% TFA
Protocol: The lipopeptides were purified in a Waters RP-HPLC preparative system (Jupiter 4 µ Proteo column, 90 Å, 250 × 10 mm) with the linear gradient of solution B in A from 30% to 60% (A, 0.1% solution of TFA in water and B, 80% solution of ACN in water containing 0.1% of TFA) in 40 min with a flow rate of 5 mL/min. Final purity of the analogues (at least 97%) was determined using an analytical RP-HPLC Shimadzu system (Jupiter 4 µ Proteo column, 90 Å, 250 × 4.60 mm) with the linear gradient of solution B in A from 15% to 90% in 30 min with a flow rate of 1 mL/min. Identity of lipopeptides was confirmed by MALDI-TOF mass spectrometry. Analytical data of the synthesized analogues are presented in Table S1 (Supplementary Materials). ^a linear gradient 15-90% of B in A for 30 min, flow rate 1 ml/min, RP-HPLC Shimadzu system, column: Jupiter 4 µ Proteo, 90 Å, 250 x 4.60 mm; A – 0.1% aqueous TFA solution, B – 80% solution of acetonitrile in water with 0.1% of TFA; ^b molecular masses were determined using MALDI-TOF mass spectrometer.

[15] = literature value used for comparison; cited from earlier work
Source text: As expected, the critical aggregation concentration (CAC) values increased in the homologue series, i.e., Lys, Orn, Dab, and Dap, with a linear relationship of log CAC vs. number of methylene groups in the side chain of palmitoylated residue (Figure S3, Supplementary Materials). […] The modification of the acyl chain position separated the posi ...

Row | Molecule | MIC, C. albicans [1] | MIC, E. coli [2] | MIC, P. aeruginosa [3] | MIC, S. aureus [4] | MIC, S. epidermidis [5] | IC50, 46BR.1N (24h) [6] | IC50, HaCaT (24h) [7] | IC50, A375 (48h) [8] | IC50, A549 (48h) [9] | IC50, HCT-116 (48h) [10] | IC50, HT-29 (48h) [11] | IC50, LNCaP (48h) [12] | IC50, MCF-7 (48h) [13] | Retention time (used as measure of hydrophobicity) [14] | CAC of N-terminally palmitoylated peptide [15]
1 | CCCCCCCCCCCCCCCC(=O)NC[C@H](NC(=O)[C@@H](N)CCCCN)C(=O)N[C@@H](CCCCN)C(N)=O [K(DapC16)K-NH2] (H-Lys-[Dap](Palmitoyl)-Lys-NH2) | 16 µg/mL (≈ 26.8 µM) | 8 µg/mL (≈ 13.4 µM) | 8 µg/mL (≈ 13.4 µM) | 8 µg/mL (≈ 13.4 µM) | 4 µg/mL (≈ 6.69 µM) | 8.68 ± 1.00 µg/mL (≈ 14.5 µM) | 7.25 ± 2.18 µg/mL (≈ 12.1 µM) | 11.63 ± 0.26 µg/mL (≈ 19.5 µM) | >25 µg/mL | 14.90 ± 0.30 µg/mL (≈ 24.9 µM) | 20.24 ± 0.81 µg/mL (≈ 33.9 µM) | 14.0 ± 0.41 µg/mL (≈ 23.4 µM) | 20.11 ± 2.51 µg/mL (≈ 33.6 µM) | – | –
2 | CCCCCCCCCCCCCCCC(=O)NCC[C@H](NC(=O)[C@H](CCCCN)NC(=O)[C@@H](N)CCCCN)C(=O)N[C@@H](CCCCN)C(=O)N[C@@H](CCCCN)C(N)=O [KK(DabC16)KK-NH2] (H-KK[Dab](Palmitoyl)KK-NH2) | 32 µg/mL (≈ 36.9 µM) | 8 µg/mL (≈ 9.21 µM) | 32 µg/mL (≈ 36.9 µM) | 4 µg/mL (≈ 4.61 µM) | 8 µg/mL (≈ 9.21 µM) | 9.45 ± 2.13 µg/mL (≈ 10.9 µM) | 16.95 ± 1.43 µg/mL (≈ 19.5 µM) | >25 µg/mL | >25 µg/mL | 16.74 ± 0.33 µg/mL (≈ 19.3 µM) | 20.75 ± 0.42 µg/mL (≈ 23.9 µM) | >25 µg/mL | >25 µg/mL | – | –
3 | CCCCCCCCCCCCCCCC(=O)NC[C@H](NC(=O)[C@H](CCCCN)NC(=O)[C@@H](N)CCCCN)C(=O)N[C@@H](CCCCN)C(=O)N[C@@H](CCCCN)C(N)=O [KK(DapC16)KK-NH2] (H-KK[Dap](Palmitoyl)KK-NH2) | 256 µg/mL (≈ 300 µM) | 8 µg/mL (≈ 9.37 µM) | 32 µg/mL (≈ 37.5 µM) | 4 µg/mL (≈ 4.68 µM) | 8 µg/mL (≈ 9.37 µM) | 12.77 ± 1.32 µg/mL (≈ 14.9 µM) | – | >25 µg/mL | >25 µg/mL | 23.05 ± 0.92 µg/mL (≈ 27 µM) | 24.68 ± 0.49 µg/mL (≈ 28.9 µM) | >25 µg/mL | >25 µg/mL | – | –
4 | CCCCCCCCCCCCCCCC(=O)NCCC[C@H](NC(=O)[C@H](CCCCN)NC(=O)[C@@H](N)CCCCN)C(=O)N[C@@H](CCCCN)C(=O)N[C@@H](CCCCN)C(N)=O [KK(OC16)KK-NH2] (H-KK[Orn](Palmitoyl)KK-NH2) | 32 µg/mL (≈ 36.3 µM) | 8 µg/mL (≈ 9.07 µM) | 32 µg/mL (≈ 36.3 µM) | 8 µg/mL (≈ 9.07 µM) | 4 µg/mL (≈ 4.53 µM) | 8.21 ± 1.12 µg/mL (≈ 9.31 µM) | 16.65 ± 2.29 µg/mL (≈ 18.9 µM) | >25 µg/mL | >25 µg/mL | 14.90 ± 0.75 µg/mL (≈ 16.9 µM) | 19.36 ± 0.58 µg/mL (≈ 21.9 µM) | >25 µg/mL | >25 µg/mL | 21.328 min | –
5 | C16-KKK-NH2 [Peptide C16-KKK-NH2] | – | – | – | – | – | – | – | – | – | – | – | – | – | – | 4.8 mM
